Experiments:
MDA-MB-231 cells = experiment: Cell proliferation assay (CellTiter-Glo), MDA-MB-231; assay type: cell-based; conditions: 72 h treatment, Celltiter-Glo luminescence
How it was run: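 Compounds tested over ten concentrations ([…]) for 72 h on EVSA-T cells in MEM/10% FBS and MDA-MB-231 cells in RPMI-1640/10% FBS, seeded at 10000/well. Luminescent CellTiter-Glo readout; IC50 fitted after normalisation to controls.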

EVSA-T cells = experiment: Cell proliferation assay (CellTiter-Glo), EVSA-T; assay type: cell-based; conditions: 72 h treatment, Celltiter-Glo luminescence
Experimental: Example 238: Cell Proliferation Assay
MDA-MB-231 and EVSA-T cells (10000 cells/well) were plated onto 96-well plates (Corning, Cat #3917) in 95 μL of medium (RPMI-1640 containing 10% FBS and MEM containing 10% FBS, respectively). Compounds with various concentrations ([…]) were added to the wells. After treatment for 72 h, 30 μL of Celltiter-Glo reagent (Promega, Cat #G7573) was added and incubated at room temperature for 15 min, then the luminescent signal was determined using a microplate reader (Biotek, SynergyH1). The inhibitor dose-response curves were analyzed using normalized IC50 regression curve fitting with control based normalization.

Row | SMILES | IC50 (MDA-MB-231 cells; Homo sapiens, MDA-MB-231, 72 h) [nM] | IC50 (MDA-MB-231 cells) [nM] | IC50 (EVSA-T cells; Homo sapiens, EVSA-T, 72 h) [nM] | IC50 (EVSA-T cells) [nM]
1 | C[C@@H]1CN(CC(=O)N2CC(C)(C)c3c2cc(Cc2ccc(F)cc2F)c2nn(C[C@H]4COCCO4)c(=O)n32)[C@@H](CN2CCOC[C@H]2C)CN1 [Compound 285, 2-(((S)-1,4-dioxan-2-yl)methyl)-4-(2,4-difluorobenzyl)-8,8-dimethyl-6-(2-((2R,5R)-5-methyl-2-(((R)-3-methylmorpholino)methyl)piperazin-1-yl)acetyl)-2,6,7,8-tetrahydro-1H-pyrrolo[2,3-e][1,2,4]triazolo[4,3-a]pyridin-1-one] | 26 |  | 4.6 | 
2 | Cc1ncc2c(Cc3ccc(F)cc3)cc3c(n12)C(C)(C)CN3C(=O)CN1C[C@@H](C)NC[C@@H]1CN1CCOC[C@H]1C [Compound 2, 1-(4-(4-fluorobenzyl)-1,8,8-trimethyl-7,8-dihydro-6H-imidazo[1,5-a]pyrrolo[2,3-e]pyridin-6-yl)-2-((2R,5R)-5-methyl-2-(((R)-3-methylmorpholino)methyl)piperazin-1-yl)ethan-1-one] | 110 |  | 13 | 
3 | C[C@@H]1CN(CC(=O)N2CC(C)(C)c3c2cc(Cc2ccc(F)cc2)c2nn(C4CCC4O)c(=O)n32)[C@@H](CN2CCOC[C@H]2C)CN1 (stereo partly drawn) [Compound 273B, 4-(4-fluorobenzyl)-2-(2-hydroxycyclobutyl)-8,8-dimethyl-6-(2-((2R,5R)-5-methyl-2-(((R)-3-methylmorpholino)methyl)piperazin-1-yl)acetyl)-2,6,7,8-tetrahydro-1H-pyrrolo[2,3-e][1,2,4]triazolo[4,3-a]pyridin-1-one] |  | 14 |  | 1.7
4 | C[C@@H]1CN(CC(=O)N2CC(C)(C)c3c2cc(Cc2ccc(F)cc2)c2nc(N(C)C=O)nn32)[C@@H](CN2CCOC[C@H]2C)CN1 [Compound 241, N-(4-(4-fluorobenzyl)-8,8-dimethyl-6-(2-((2R,5R)-5-methy 1-2-(((R)-3-methylmorpholino)methyl)piperazin-1-yl)acetyl)-7,8-dihydro-6H-pyrrolo[2,3-e][1,2,4]triazolo[1,5-a]pyridin-2-yl)-N-methylformamide] | 15 |  | 6.3 | 
5 | C[C@@H]1CN(CC(=O)N2CC(C)(C)c3c2cc(Cc2ccc(F)cc2)c2nn(Cc4cccc(F)n4)c(=O)n32)[C@@H](CN2CCOC[C@H]2C)CN1 [Compound 219, 4-(4-fluorobenzyl)-2-((6-fluoropyridin-2-yl)methyl)-8,8-di methyl-6-(2-((2R,5R)-5-methyl-2-(((R)-3-methylmorpholino)methyl)piperazin-1-yl)acetyl)-2,6,7,8-tetrahydro-1H-pyrrolo[2,3-e][1,2,4]triazolo[4,3-a]pyridin-1-one] | 47 |  | 2 | 
6 | C[C@@H]1CN(CC(=O)N2CC(C)(C)c3c2cc(Cc2ccc(F)cc2)c2nn(Cc4cccnc4)c(=O)n32)[C@@H](CN2CCOC[C@H]2C)CN1 [Compound 245, 4-(4-fluorobenzyl)-8,8-dimethyl-6-(2-((2R,5R)-5-methyl-2-(((R)-3-methylmorpholino)methyl)piperazin-1-yl)acetyl)-2-(pyridin-3-ylmethyl)-2,6,7,8-tetrahydro-1H-pyrrolo[2,3-e][1,2,4]triazolo[4,3-a]pyridin-1-one] | 5 |  | 6.2 | 
7 | C[C@@H]1CN(CC(=O)N2CC(C)(C)c3c2cc(Cc2ccc(F)cc2)c2nc(C(F)F)cn32)[C@@H](CN2CCOC[C@H]2C)CN1 [Compound 122, 1-(2-(difluoromethyl)-4-(4-fluorobenzyl)-8,8-dimethyl-7,8-dihydro-6H-imidazo[1,2-a]pyrrolo[2,3-e]pyridin-6-yl)-2-((2R,5R)-5-methyl-2-(((R)-3-methylmorpholino)methyl)piperazin-1-yl)ethan-1-one] | 65 |  | 6 | 
8 | C[C@@H]1CN(CC(=O)N2CC(C)(C)c3c2cc(Cc2ccc(F)cc2)c2nc(-c4cncnc4)nn32)[C@@H](CN2CCOC[C@H]2C)CN1 [Compound 184, 1-(4-(4-fluorobenzyl)-8,8-dimethyl-2-(pyrimidin-5-yl)-7,8-dihydro-6H-pyrrolo[2,3-e][1,2,4]triazolo[1,5-a]pyridin-6-yl)-2-((2R,5R)-5-methyl-2-(((R)-3-methylmorpholino)methyl)piperazin-1-yl)ethan-1-one] | 17 |  | 6 | 

Further lines, with some results ahead:

Row | IC50 (MDA-MB-231 cells; Homo sapiens, MDA-MB-231, 72 h) [nM] | IC50 (MDA-MB-231 cells) [nM] | SMILES | IC50 (EVSA-T cells; Homo sapiens, EVSA-T, 72 h) [nM] | IC50 (EVSA-T cells) [nM]
9 | 17 |  | C[C@@H]1CN(CC(=O)N2CC(C)(C)c3c2cc(Cc2ccc(F)cc2)c2ncnn32)[C@@H](CN2CCN(CC#N)C[C@H]2C)CN1 [Compound 182, 2-((R)-4-(((2R,5R)-1-(2-(4-(4-fluorobenzyl)-8,8-dimethyl-7,8-dihydro-6H-pyrrolo[2,3-e][1,2,4]triazolo[1,5-a]pyridin-6-yl)-2-oxoethyl)-5-methylpiperazin-2-yl)methyl)-3-methylpiperazin-1-yl)acetonitrile] | 2 | 
10 | 39 |  | C[C@@H]1CN(CC(=O)N2CC(C)(C)c3c2cc(Cc2ccc(F)cc2)c2nn(CC(C)(C)O)c(=O)n32)[C@@H](CN2CCOCC23CC3)CN1 [Compound 278, 6-(2-((2R,5R)-2-((7-oxa-4-azaspiro[2.5]octan-4-yl)methyl)-5-methylpiperazin-1-yl)acetyl)-4-(4-fluorobenzyl)-2-(2-hydroxy-2-methylpropyl)-8,8-dimethyl-2,6,7,8-tetrahydro-1H-pyrrolo[2,3-e][1,2,4]triazolo[4,3-a]pyridin-1-one] | 9.7 | 
11 | 43 |  | C[C@@H]1CN(CC(=O)N2CC(C)(C)c3c2cc(Cc2ccc(F)cc2)c2nc(N4CCOCC4)nn32)[C@@H](CN2CCOC[C@H]2C)CN1 [Compound 143, 1-(4-(4-fluorobenzyl)-8,8-dimethyl-2-morpholino-7,8-dihydro-6H-pyrrolo[2,3-e][1,2,4]triazolo[1,5-a]pyridin-6-yl)-2-((2R,5R)-5-methyl-2-(((R)-3-methylmorpholino)methyl)piperazin-1-yl)ethan-1-one] | 3 | 
12 | 46 |  | C[C@@H]1CN(CC(=O)N2CC(C)(C)c3c2cc(Cc2ccc(F)cc2)c2nc(C(F)(F)F)cn32)[C@@H](CN2[C@@H](C)COC[C@@H]2C)CN1 [Compound 162, 2-((2R,5R)-2-(((3S,5S)-3,5-dimethylmorpholino)methyl)-5-methylpiperazin-1-yl)-1-(4-(4-fluorobenzyl)-8,8-dimethyl-2-(trifluoromethyl)-7,8-dihydro-6H-imidazo[1,2-a]pyrrolo[2,3-e]pyridin-6-yl)ethan-1-one] | 10 | 
13 | 41 |  | C[C@@H]1CN(CC(=O)N2CC(C)(C)c3c2cc(Cc2ccc(F)cc2)c2nn(CC(C)(C)O)c(=O)n32)[C@@H](CN2CC3CCC(C2)O3)CN1 [Compound 265, 6-(2-((2R,5R)-2-((8-oxa-3-azabicyclo[3.2.1]octan-3-yl)methyl)-5-methylpiperazin-1-yl)acetyl)-4-(4-fluorobenzyl)-2-(2-hydroxy-2-methylpropyl)-8,8-dimethyl-2,6,7,8-tetrahydro-1H-pyrrolo[2,3-e][1,2,4]triazolo[4,3-a]pyridin-1-one] | 26.8 | 
14 | 130 |  | C[C@@H]1CN(CC(=O)N2CC(C)(C)c3c2cc(C(F)(F)CC2CC2)c2ncnn32)[C@@H](CN2CCOC[C@H]2C)CN1 [Compound 53, 1-(4-(2-cyclopropyl-1,1-difluoroethyl)-8,8-dimethyl-7,8-dihydro-6H-pyrrolo[2,3-e][1,2,4]triazolo[1,5-a]pyridin-6-yl)-2-((2R,5R)-5-methyl-2-(((R)-3-methylmorpholino)methyl)piperazin-1-yl)ethan-1-one] | 60 | 
15 | 45 |  | C[C@@H]1CN(CC(=O)N2CC(C)(C)c3c2cc(Cc2ccc(F)cc2)c2nc(C4CCOCC4)nn32)[C@@H](CN2CCOC[C@H]2C)CN1 [Compound 140, 1-(4-(4-fluorobenzyl)-8,8-dimethyl-2-(tetrahydro-2H-pyran-4-yl)-7,8-dihydro-6H-pyrrolo[2,3-e][1,2,4]triazolo[1,5-a]pyridin-6-yl)-2-((2R,5R)-5-methyl-2-(((R)-3-methylmorpholino)methyl)piperazin-1-yl)ethan-1-one] | 3 | 
16 | 65 |  | C[C@@H]1CN(CC(=O)N2CC(C)(C)c3c2cc(Cc2ccc(F)cc2)c2nc(CF)cn32)[C@@H](CN2CCOC[C@H]2C)CN1 [Compound 121, 1-(4-(4-fluorobenzyl)-2-(fluoromethyl)-8,8-dimethyl-7,8-dihydro-6H-imidazo[1,2-a]pyrrolo[2,3-e]pyridin-6-yl)-2-((2R,5R)-5-methyl-2-(((R)-3-methylmorpholino)methyl)piperazin-1-yl)ethan-1-one] | 5 | 
17 | 44 |  | C[C@@H]1CN(CC(=O)N2CC(C)(C)c3c2cc(Cc2ccc(F)cc2)c2nc(N4CCOC4=O)nn32)[C@@H](CN2CCOC[C@H]2C)CN1 [Compound 204, 3-(4-(4-fluorobenzyl)-8,8-dimethyl-6-(2-((2R,5R)-5-methyl-2-(((R)-3-methylmorpholino)methyl)piperazin-1-yl)acetyl)-7,8-dihydro-6H-pyrrolo[2,3-e][1,2,4]triazolo[1,5-a]pyridin-2-yl)oxazolidin-2-one] | 14 | 
18 | 190 |  | C[C@@H]1CN(CC(=O)N2CC(C)(C)c3c2cc(Cc2ccc(F)cc2)c2nnc(C4CC4)n32)[C@@H](CN2CCOC[C@H]2C)CN1 [Example 12, 1-(1-cyclopropyl-4-(4-fluorobenzyl)-8,8-dimethyl-7,8-dihydro-6H-pyrrolo[2,3-e][1,2,4]triazolo[4,3-a]pyridin-6-yl)-2-((2R,5R)-5-methyl-2-(((R)-3-methylmorpholino)methyl)piperazin-1-yl)ethan-1-one] | 12 | 
